Laboratory results taken from PubChem BioAssay (NCI).
Several values for one entry are separate records, joined by “and”; a condition that tells them apart may be missing. Identical values can stand only once.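 How tested: cells in 96-well plates exposed to compound for 48 hours at five concentrations. The concentration for 50% growth inhibition is given as GI50. TGI: concentration producing complete growth inhibition.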

Columns and labels:
Assay in all cases: NCI tumour cell line growth inhibition, 48 h
SK-OV-3 ovarian = system: SK-OV-3 ovarian
M14 melanoma = system: M14 melanoma
RXF 393 renal = system: RXF 393 renal
NCI-H460 lung = system: NCI-H460 lung
MALME-3M melanoma = system: MALME-3M melanoma
UO-31 renal = system: UO-31 renal
A498 renal = system: A498 renal
BT-549 breast = system: BT-549 breast
COLO 205 colon = system: COLO 205 colon
MDA-N = system: MDA-N
IGROV1 ovarian = system: IGROV1 ovarian

O=S(O)CCCCCSSc1ccccc1
TGI (SK-OV-3 ovarian): > 100 µM | TGI (M14 melanoma): > 100 µM | TGI (RXF 393 renal): 89.2 µM | TGI (NCI-H460 lung): > 100 µM | TGI (MALME-3M melanoma): > 100 µM | TGI (UO-31 renal): > 100 µM | TGI (A498 renal): > 100 µM

COc1ccc(-n2c(CCC(=O)O)nc3c2C(=O)c2ccccc2C3=O)cc1
TGI (BT-549 breast): > 100 µM | TGI (SK-OV-3 ovarian): > 100 µM | TGI (M14 melanoma): > 100 µM | TGI (RXF 393 renal): > 100 µM | TGI (NCI-H460 lung): > 100 µM | TGI (COLO 205 colon): > 100 µM | TGI (MDA-N): > 100 µM | TGI (UO-31 renal): > 100 µM | TGI (A498 renal): > 100 µM

O=C(Nc1ccc([N+](=O)[O-])cc1)Nn1cnnc1
TGI (BT-549 breast): 69.7 µM | TGI (SK-OV-3 ovarian): > 100 µM | TGI (M14 melanoma): > 100 µM | TGI (IGROV1 ovarian): > 100 µM | TGI (NCI-H460 lung): > 100 µM | TGI (COLO 205 colon): > 100 µM | TGI (MDA-N): > 100 µM | TGI (MALME-3M melanoma): 80 µM | TGI (UO-31 renal): > 100 µM | TGI (A498 renal): > 100 µM

Cc1c(O)c(=O)ccn1CCN
TGI (SK-OV-3 ovarian): > 100 µM | TGI (M14 melanoma): > 100 µM | TGI (RXF 393 renal): > 100 µM | TGI (IGROV1 ovarian): > 100 µM | TGI (NCI-H460 lung): > 100 µM | TGI (COLO 205 colon): > 100 µM | TGI (MALME-3M melanoma): > 100 µM | TGI (UO-31 renal): > 100 µM | TGI (A498 renal): > 100 µM

CN(C)CCNc1ccc2ncn3c4ccccc4c(=O)c1c23
TGI (SK-OV-3 ovarian): 16.2 µM | TGI (M14 melanoma): 13.7 µM | TGI (IGROV1 ovarian): 11.9 µM | TGI (NCI-H460 lung): 6.86 µM | TGI (COLO 205 colon): 4.03 µM | TGI (MALME-3M melanoma): 10.2 µM | TGI (UO-31 renal): 17.5 µM | TGI (A498 renal): 21.1 µM

N#C/C(=C\c1ccncc1)c1csc2ccccc12
TGI (SK-OV-3 ovarian): > 73.1 µM | TGI (RXF 393 renal): > 83.1 µM | TGI (IGROV1 ovarian): 97.4 µM | TGI (NCI-H460 lung): > 69 µM | TGI (COLO 205 colon): 35.9 µM | TGI (MALME-3M melanoma): > 96.2 µM | TGI (UO-31 renal): > 83.2 µM | TGI (A498 renal): 66.6 µM

O=NN1C(c2ccccc2)CNC(=O)CC1c1ccccc1 (configuration not stated)
TGI (SK-OV-3 ovarian): > 89 µM | TGI (RXF 393 renal): 81.1 µM | TGI (IGROV1 ovarian): > 100 µM | TGI (NCI-H460 lung): > 100 µM | TGI (COLO 205 colon): 69.8 µM | TGI (MALME-3M melanoma): > 100 µM | TGI (UO-31 renal): > 83.6 µM | TGI (A498 renal): > 100 µM

COc1cc2c(c(OC)c1OC)-c1ccc(SC)c(=O)cc1[C@@H](NCc1ccc(F)cc1)CC2
TGI (RXF 393 renal): 75 µM and 19.5 µM | TGI (IGROV1 ovarian): 75 µM | TGI (COLO 205 colon): < 0.0075 µM | TGI (MALME-3M melanoma): 34.2 µM and 28.4 µM | GI50 (UO-31 renal): < 0.0075 µM | TGI (UO-31 renal): 75 µM and 95.9 µM | TGI (A498 renal): 0.0265 µM

COc1cc(OC2OC(CO)C(O)C(O)C2O)c2c(O)c3c(=O)cc(C)oc3cc2c1 (configuration not stated)
TGI (BT-549 breast): > 100 µM | TGI (SK-OV-3 ovarian): > 100 µM | TGI (M14 melanoma): > 100 µM | TGI (IGROV1 ovarian): > 100 µM | TGI (NCI-H460 lung): > 100 µM | TGI (COLO 205 colon): > 100 µM | TGI (MALME-3M melanoma): > 100 µM | TGI (UO-31 renal): > 100 µM | TGI (A498 renal): > 100 µM

O=C(CNc1ccccn1)Nn1cnc2ccc(S(=O)(=O)Nc3ccccn3)cc2c1=O
TGI (BT-549 breast): > 100 µM | TGI (SK-OV-3 ovarian): > 100 µM | TGI (M14 melanoma): > 100 µM | TGI (IGROV1 ovarian): > 100 µM | TGI (NCI-H460 lung): > 100 µM | TGI (COLO 205 colon): > 100 µM | TGI (MDA-N): > 100 µM | TGI (MALME-3M melanoma): > 100 µM | TGI (UO-31 renal): > 100 µM

CC(C)(O)/C1=C/C=C/CCCCCCCCCC1
TGI (BT-549 breast): > 100 µM | TGI (SK-OV-3 ovarian): > 100 µM | TGI (M14 melanoma): > 100 µM | TGI (IGROV1 ovarian): > 100 µM | TGI (NCI-H460 lung): > 100 µM | TGI (COLO 205 colon): > 100 µM | TGI (MDA-N): > 100 µM | TGI (MALME-3M melanoma): > 100 µM | TGI (UO-31 renal): > 100 µM | TGI (A498 renal): > 100 µM

COC(=O)C(CC(C)C)NC(=O)C(NC(=O)c1ccc(-c2ccc(Cl)cc2Cl)o1)C(C)C (configuration not stated)
TGI (BT-549 breast): > 100 µM | TGI (SK-OV-3 ovarian): > 100 µM | TGI (M14 melanoma): 65.8 µM | TGI (RXF 393 renal): 47.2 µM | TGI (IGROV1 ovarian): > 100 µM | TGI (NCI-H460 lung): 34.2 µM | TGI (COLO 205 colon): 52.2 µM | TGI (MDA-N): > 100 µM | TGI (UO-31 renal): 61.2 µM

C=CCCC1(O)C(O)C(CO)O[C@H](O[C@@]2(CO)OC(CO)C(O)C2O)C1O (some centres not stated)
TGI (BT-549 breast): > 100 µM | TGI (M14 melanoma): > 100 µM | TGI (IGROV1 ovarian): > 100 µM | TGI (NCI-H460 lung): > 100 µM | TGI (COLO 205 colon): > 100 µM | TGI (MALME-3M melanoma): > 100 µM

COc1ccc(/C=c2\c(=O)[nH]c3nc4ccccc4c(=O)n23)cc1
TGI (BT-549 breast): > 100 µM | TGI (SK-OV-3 ovarian): > 100 µM | TGI (M14 melanoma): > 100 µM | TGI (RXF 393 renal): > 100 µM | TGI (IGROV1 ovarian): > 100 µM | TGI (COLO 205 colon): > 100 µM | TGI (MALME-3M melanoma): > 100 µM | TGI (UO-31 renal): > 100 µM

CC1=CC2C(C=C1)S(=O)(=O)N1CC21c1ccccc1 (configuration not stated)
TGI (SK-OV-3 ovarian): > 100 µM | TGI (M14 melanoma): > 100 µM | TGI (IGROV1 ovarian): > 100 µM | TGI (NCI-H460 lung): > 100 µM | TGI (COLO 205 colon): > 100 µM | TGI (MALME-3M melanoma): > 100 µM | TGI (UO-31 renal): > 100 µM | TGI (A498 renal): > 100 µM

O=C(Cc1ccccc1)NN1C(=O)C(Cl)C1c1ccccc1Cl (configuration not stated)
TGI (SK-OV-3 ovarian): > 100 µM | TGI (M14 melanoma): > 100 µM | TGI (RXF 393 renal): > 100 µM | TGI (IGROV1 ovarian): > 93.1 µM | TGI (NCI-H460 lung): > 100 µM | TGI (COLO 205 colon): > 100 µM | TGI (MALME-3M melanoma): > 100 µM | TGI (UO-31 renal): > 100 µM | TGI (A498 renal): > 100 µM

O=Cc1c[nH]c2c(=O)[nH]cnc12
TGI (SK-OV-3 ovarian): > 100 µM | TGI (M14 melanoma): > 100 µM | TGI (RXF 393 renal): > 100 µM | TGI (IGROV1 ovarian): > 100 µM | TGI (COLO 205 colon): > 100 µM | TGI (MALME-3M melanoma): > 100 µM | TGI (UO-31 renal): > 100 µM

O=C/C(=C1/C=Cc2cc([N+](=O)[O-])ccc2S1)c1ccccc1
TGI (SK-OV-3 ovarian): > 100 µM | TGI (M14 melanoma): > 100 µM | TGI (RXF 393 renal): > 100 µM | TGI (IGROV1 ovarian): > 100 µM | TGI (NCI-H460 lung): > 100 µM | TGI (COLO 205 colon): > 100 µM | TGI (MDA-N): > 100 µM | TGI (MALME-3M melanoma): > 100 µM | TGI (UO-31 renal): > 100 µM | TGI (A498 renal): > 100 µM

Clc1ccc(Cl)c(N=Nc2cc3c4c(c2)CCN4CCC3)c1
TGI (SK-OV-3 ovarian): > 10 µM | TGI (M14 melanoma): > 10 µM | TGI (RXF 393 renal): > 10 µM | TGI (IGROV1 ovarian): > 10 µM | TGI (NCI-H460 lung): > 10 µM | TGI (COLO 205 colon): > 10 µM | TGI (MDA-N): > 10 µM | TGI (MALME-3M melanoma): > 10 µM | TGI (UO-31 renal): > 10 µM | TGI (A498 renal): > 10 µM

FC(F)(F)c1ccc2c(c1)N(CCCNCCN1CCOCC1)c1ccccc1S2
TGI (M14 melanoma): 4.13 µM | TGI (RXF 393 renal): 9.11 µM | TGI (IGROV1 ovarian): 33.5 µM | TGI (NCI-H460 lung): 38.5 µM | TGI (COLO 205 colon): 6.84 µM | TGI (MALME-3M melanoma): 7.15 µM | TGI (UO-31 renal): 17.5 µM | TGI (A498 renal): 34.9 µM

Nc1nc(NNc2cccc(F)c2)cc(=O)[nH]1
TGI (BT-549 breast): > 100 µM | TGI (M14 melanoma): > 100 µM | TGI (IGROV1 ovarian): > 100 µM | TGI (NCI-H460 lung): > 100 µM | TGI (COLO 205 colon): 54.3 µM | TGI (MALME-3M melanoma): > 100 µM | TGI (UO-31 renal): > 100 µM | TGI (A498 renal): > 100 µM

O[C@]12C=C(c3nccc4c3[nH]c3ccccc34)[C@@H]3CCN(CCCC/C=C\CC1)C[C@@]31CC3/C=C\CCCCN3[C@H]12 (some centres not stated)
TGI (BT-549 breast): 10.4 µM | TGI (SK-OV-3 ovarian): 0.743 µM | TGI (M14 melanoma): 0.896 µM | TGI (IGROV1 ovarian): 2.28 µM | TGI (NCI-H460 lung): 2.02 µM | TGI (COLO 205 colon): 1.13 µM | TGI (MDA-N): 1.31 µM | TGI (MALME-3M melanoma): 1.71 µM | TGI (UO-31 renal): 0.463 µM | TGI (A498 renal): 2.83 µM

CC(C)(C)OC(=O)NC1CCCC1C(=O)C1=CCCC1 (configuration not stated)
TGI (BT-549 breast): > 100 µM | TGI (SK-OV-3 ovarian): > 100 µM | TGI (M14 melanoma): > 100 µM | TGI (RXF 393 renal): > 100 µM | TGI (IGROV1 ovarian): > 100 µM | TGI (NCI-H460 lung): > 100 µM | TGI (COLO 205 colon): > 100 µM | TGI (MDA-N): > 100 µM | TGI (A498 renal): > 100 µM

CC1=CC(=O)CC2(C)CCC(C(C)CC(=O)CC(C)C)CC12OO (configuration not stated)
TGI (M14 melanoma): 32.4 µM and 30.1 µM | GI50 (RXF 393 renal): 12.5 µM and 32.6 µM | TGI (RXF 393 renal): 26.2 µM and > 100 µM | TGI (IGROV1 ovarian): 46.6 µM and 31 µM | GI50 (NCI-H460 lung): 11.6 µM and 31 µM | TGI (NCI-H460 lung): 25.1 µM and > 100 µM | TGI (COLO 205 colon): 27.8 µM and 34.8 µM | TGI (MDA-N): 34.7 µM and 33.4 µM | TGI (MALME-3M melanoma): > 100 µM and 36.7 µM | TGI (UO-31 renal): 29.8 µM and 34.7 µM | TGI (A498 renal): 31.5 µM and 49.4 µM
